Values joined by “and” are separate entries in the source; they are usually repeats but may differ in a detail not shown here. Identical values can stand only once.
Experiments:
[1] = Pharmacokinetics of plasmatic oxytocin after intravenous, nasal spray or nebulizer administration; settings: for Concentration (plasma oxytocin): Condition IV, individual participants (Fig6A source data); for Bioavailability: individual participants, corrected source data (Fig6C)
Description: We present a summary of three
(§1) parameters describing the pharmacokinetics of each treatment administration method. We
(§2) present the maximum plasmatic concentration achieved after dosing (Cmax), the area under the
(§3) curve (AUC) reflecting the magnitude of the variations of plasmatic oxytocin post-dosing and
(§4) the absolute bioavailability of oxytocin absorbed to the plasma, calculated as the dose-corrected
(§5) AUC of each intranasal administration divided by the dose-corrected AUC of the intravenous
(§6) administration. Data are presented as mean (1 standard error of the mean).

[2] = in vivo
Description: We present a summary of three
as §1, §2, §3, §4, §5, §6

[3] = test system: heart rate and heart rate variability; set-up: species or system humans; settings: in vivo, iv
Experimental: Supplementary Table 4 – Percentage of observations satisfying quality control criteria for
the pulse plethysmography analysis. Following current recommendations for heart rate data
processing and analysis, if more than 5% of the beats required correction, then we decided to
exclude these periods of observation. In some rare cases where artefacts could not be corrected,
we only included the data if at least 5 min of acquisition free of artefacts could be analysed. In
this table, we present the percentage of total data available satisfying our quality control criteria
for each treatment method of administration and time-interval, so the reader can appreciate the
amount of data effectively used in the final analysis.
Time from last drug administration offset (minutes)
We determined time-interval, treatment, and treatment
x time-interval effects on a set of time domain (heart-rate (HR) and the root mean square of the successive differences (RMSSD), frequency domain
(low (LF) and high (HF) frequencies spectral powers and high/low frequency spectral power ratio (HF/LF)) and non-linear (Approximate entropy
(ApEn), the SD1 and SD2 lines from the Poincare Plot and the detrended fluctuation scaling exponents DFAα1 and DFAα2) analysis measures of
heart rate variability. We used a repeated measures two-way analysis of variance, using subjects, treatment and time as factors, and the Greenhouse- […]

- Concentration (plasma oxytocin) ([1]; Sample 2, in pg/mL): 65.12 and 59.67 and 47.11
- Concentration (plasma oxytocin) ([1]; Sample 3): 0.0681 ng/mL
- Concentration (plasma oxytocin) ([1]; Sample 4): 0.0539 ng/mL
- Concentration (plasma oxytocin) ([1]; Sample 4, in pg/mL): 30.93
- Concentration (plasma oxytocin) ([1]; Sample 6, in pg/mL): 12.86 and 20.71
- Concentration (plasma oxytocin) ([1]; Sample 7): 0.00723 ng/mL and 0.00461 ng/mL
- Concentration (plasma oxytocin) ([1]; Sample 8): 0.00377 ng/mL
- Absolute bioavailability of OT absorbed to the plasma, standard nasal spray vs PARI SINUS nebulizer ([1]; corrected AUCs, paired t-test p = 0.438): no significant differences
- Cmax ([1]; human, in vivo, iv, SEM): 0.0643 ng/mL
- AUC over the observation interval, intravenous OT infusion vs intranasal methods [2]: significantly higher AUC
SMILES: CC[C@H](C)[C@@H]1NC(=O)[C@H](Cc2ccc(O)cc2)NC(=O)[C@@H](N)CSSC[C@@H](C(=O)N2CCC[C@H]2C(=O)N[C@@H](CC(C)C)C(=O)NCC(N)=O)NC(=O)[C@H](CC(N)=O)NC(=O)[C@H](CCC(N)=O)NC1=O [oxytocin]
- Bioavailability ([1]; Nebuliser): 31.90% and 10.30% and 3.30% and 7.94% and 12.67% and 62.94% and 5.39% and 6.53% and 8.236% and 4.17% and 6.07% and 5.20% and 6.82% and 10.22% and 6.95% and 32.80%
- Bioavailability ([1]; Spray): 6.85% and 11.96% and 5.38% and 16.81% and 5.32% and 6.16% and 8.93% and 4.67% and 8.4323% and 12.50% and 14.77% and 6.29% and 7.56% and 11.34% and 5.36% and 37.05%
- Effect on heart rate and heart rate variability [3]: did not affect heart rate or heart rate variability
